This is an account of results in BindingDB's records for patent US11795173 (Xinthera, 2023).

In assay [1] the target is Poly [ADP-ribose] polymerase 1 (Homo sapiens, UniProt P09874). Briefly: Biochemical (FP) Assay. The protocol:
(§1) PARP1 and PARP2 protein were expressed, purified, and diluted in assay buffer containing 50 mM Tris pH 8.0, 0.001% Triton X-100, 10 mM MgCI2, 150 mM NaCI to a final concentration of 20 nM.

Assay [2] concerns the target Poly [ADP-ribose] polymerase 2 (Homo sapiens, UniProt Q9UGN5). Briefly: Biochemical (FP) Assay. The protocol:
as §1

Poly [ADP-ribose] polymerase 1, sequence (P09874 whole entry): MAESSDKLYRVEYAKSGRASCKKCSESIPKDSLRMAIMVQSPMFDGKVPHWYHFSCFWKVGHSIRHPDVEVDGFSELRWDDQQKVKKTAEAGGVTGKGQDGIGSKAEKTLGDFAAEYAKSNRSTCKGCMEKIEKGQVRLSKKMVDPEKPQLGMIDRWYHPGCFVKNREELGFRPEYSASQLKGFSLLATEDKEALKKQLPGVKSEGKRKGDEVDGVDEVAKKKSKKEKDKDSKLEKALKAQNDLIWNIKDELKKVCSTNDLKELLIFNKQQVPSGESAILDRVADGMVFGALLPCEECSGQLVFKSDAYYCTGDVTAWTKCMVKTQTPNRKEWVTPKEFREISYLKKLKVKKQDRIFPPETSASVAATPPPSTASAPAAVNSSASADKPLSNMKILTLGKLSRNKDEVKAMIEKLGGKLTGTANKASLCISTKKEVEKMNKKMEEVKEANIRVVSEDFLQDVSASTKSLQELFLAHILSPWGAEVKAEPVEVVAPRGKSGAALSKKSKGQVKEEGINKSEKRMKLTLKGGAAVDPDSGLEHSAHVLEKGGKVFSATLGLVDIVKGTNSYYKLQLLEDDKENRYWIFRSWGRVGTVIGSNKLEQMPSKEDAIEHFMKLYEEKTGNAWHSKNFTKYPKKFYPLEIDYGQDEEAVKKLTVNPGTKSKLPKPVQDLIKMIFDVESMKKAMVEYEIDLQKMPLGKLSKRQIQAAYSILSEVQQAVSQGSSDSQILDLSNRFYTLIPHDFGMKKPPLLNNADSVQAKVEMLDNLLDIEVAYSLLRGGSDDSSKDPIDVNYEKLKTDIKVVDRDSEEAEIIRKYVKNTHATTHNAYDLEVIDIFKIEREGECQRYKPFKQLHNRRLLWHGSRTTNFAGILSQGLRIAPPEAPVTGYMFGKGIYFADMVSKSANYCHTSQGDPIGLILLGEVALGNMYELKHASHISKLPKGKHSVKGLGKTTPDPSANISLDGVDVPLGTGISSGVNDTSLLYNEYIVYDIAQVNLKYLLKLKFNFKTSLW
Poly [ADP-ribose] polymerase 2, sequence (Q9UGN5 whole entry): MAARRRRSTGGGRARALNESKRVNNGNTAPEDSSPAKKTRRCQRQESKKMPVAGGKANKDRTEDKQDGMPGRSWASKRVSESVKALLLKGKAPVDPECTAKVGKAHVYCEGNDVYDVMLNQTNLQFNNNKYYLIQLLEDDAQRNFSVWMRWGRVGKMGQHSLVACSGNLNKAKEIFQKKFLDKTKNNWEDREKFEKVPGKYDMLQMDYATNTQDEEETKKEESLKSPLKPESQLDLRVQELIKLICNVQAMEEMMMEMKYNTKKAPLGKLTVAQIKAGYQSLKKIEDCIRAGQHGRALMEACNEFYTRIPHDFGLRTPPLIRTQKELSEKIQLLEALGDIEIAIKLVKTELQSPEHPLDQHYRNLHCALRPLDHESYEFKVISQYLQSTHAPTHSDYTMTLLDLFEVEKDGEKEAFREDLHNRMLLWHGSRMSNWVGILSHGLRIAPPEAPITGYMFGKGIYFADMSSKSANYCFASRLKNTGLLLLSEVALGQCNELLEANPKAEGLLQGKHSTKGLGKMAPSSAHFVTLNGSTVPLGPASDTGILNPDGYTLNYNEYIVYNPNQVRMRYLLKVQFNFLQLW

Usually IC50 stands for the midpoint of a concentration-inhibition curve. Read a high IC50 as weaker potency. Regarding `CNC(=O)c1ccc(N2CCN(Cc3ccc4c5c(c(=O)[nH]c4c3)CCO5)CC2)c(Cl)n1` [US11795173, Comp. Ex. 2], the results for the concentration for half-maximal inhibition (IC50) in assay [1] and in assay [2] were 4 nM and greater than 100000 nM, respectively.
On the same counts, the results for `CNC(=O)c1ccc(N2CCN(Cc3cc(F)c4c5c(c(=O)[nH]c4c3)COC5)CC2)c(F)n1` [US11795173, Comp. Ex. 3] are 4.3 nM and greater than 100000 nM.
